Measurements as given in patent US20210338684A1, “DIAGNOSTIC AND THERAPEUTIC METHODS FOR CANCER” (Genentech, Inc., priority 2016, published 2021).
Entries after “also recorded” stand apart in the source; their conditions may differ.

How the values were obtained:
SMARCA2 = SMARCA2 expression (Taqman quantitative RT-PCR, Western blot); settings: for induction of SMARCA2 transcript and protein: 6 or 10 days
ARID1A-mutant cell lines = test: 3D Matrigel culture, acini formation; type: cell-based, human
Description: Wells of a 24 well plated were coated with 70 μl Matrigel Matrix (Corning) and allowed to congeal at room temperature. Cells (n=5,000) were plated on top of the basement matrix in 400 μl RPMI+10% FBS containing 2% Matrigel matrix. Cells were treated with the respective compounds in 400 μl media to replenish the old media. Colonies were imaged on a Zeiss Axio Observer A1 microscope 10 days after the start of experiment.

[1] = test system: ARID1A-mutant cancer cell lines; test: Clonogenic assay (colony formation); type: cell-based, human
Description: (§1) 1,800-5,000 cells were plated in each 6-well plate, according to the doubling time. 24 hours after plating, the medium was removed and replaced with medium containing EPZ-6438 at different concentrations. Fresh medium with EPZ-6438 was replaced every 3 to 4 days until control cells reached confluence to stop culture. For studies evaluating the effect of EZH2 knockout, cells were plated 7 days following puromycin selection. The medium was removed, and cells were washed with PBS and stained with 0.5% crystal violet for 20 minutes at room temperature. Dye was removed, cell monolayers were washed with water, and the plate was washed and photographed.

[2] = test system: SMARCA4-mutant cancer cell lines; test: Clonogenic assay (colony formation)
cathepsin B (CTSB) = test: CTSB transcript and protein expression; type: cell-based, human; settings: TOV-112D control cells, 5 μM
Description: For studies evaluating EPZ-6438 effects, cells were treated with various doses of EPZ-6438 for 6 days. On day 3, fresh medium containing EPZ-6438 was introduced. Cell pellets were lysed in RIPA buffer containing 1M NaCl and homogenized for 3 minutes at speed 10 (NextAdvance, Bullet Blender® 24). 12 μg or 18 μg protein was dissolved in 4-12% bis-Tris or 3-8% Tris-acetate gel and transferred to polyvinylidend difluoride (PVDF) membranes. IRDYE® secondary antibodies were used for detection by an Odyssey Imager (LI-COR). Total RNA was extracted using Qiagen RNeasy Plus Mini kit, according to the manufacturers protocol. Quality control of samples was performed to determine RNA quantity and quality prior to their processing by RNA-seq. The concentration of RNA samples was determined using NanoDrop 8000 (Thermo Scientific) and the integrity of RNA was determined by Fragment Analyzer (Advanced Analytical Technologies). 0.5 μg of total RNA was used as an input material for library preparation using TruSeq RNA Sample Preparation Kit v2 (Illumina). Size of the libraries was confirmed using 2200 TapeStation and High Sensitivity D1K screen tape (Agilent Technologies), and their concentration was determined by qPCR based method using Library quantification kit (KAPA). The libraries were multiplexed and sequenced on Illumina HiSeq2500 (Illumina) to generate 30M of single end 50 base pair reads.

NCI-H522 xenografts = test: Xenograft study, tumor growth; type: in vivo, mouse; settings: oral
Description: (§2) TOV-21G and NCI-H522 cells (American Type Culture Collection, Manassas, Va.) were cultured in vitro and harvested in HBSS:Matrigel (BD Biosciences; Franklin Lakes, N.J.) (1:1, v:v) for subcutaneous inoculation into female mice. TOV-21G cells were inoculated into Fox Chase SCIO® Beige mice (Charles River Laboratories, San Diego, Calif.). NCI-H522 cells were inoculated into BALB/c Nude mice (Vital River Laboratories, Beijing, China). Mice bearing established tumors were separated into groups of equally sized tumors (n=5, minimum) to receive escalating doses of EPZ-6438. EPZ-6438 was formulated once weekly in 0.5% sodium carboxymethylcellulose and 0.1% tween-80 at concentrations needed for target doses in a volume of 0.2 ml. All formulations were stored at 4° C., brought to room temperature, and mixed by vortex before oral administration by gavage twice daily from Day 1 until the end of the study. Tumor volumes were calculated from perpendicular length and width caliper measurements using the formula:
(§3) Tumor Volume (mm^3)=0.5×(Length×Width^2).
(§4) A mixed modeling approach was used to analyze the repeated measurement of tumor volumes from the same animals over time. Cubic regression splines were used to fit a nonlinear profile to the time courses of log 2-transformed tumor volumes in each group. Fitting was done via a linear mixed-effects model, using the package “nlme” (version 3.1-97) in R version 2.13.0 (R Development Core Team 2008; R Foundation for Statistical Computing; Vienna, Austria). Fitted tumor volumes were plotted in the natural scale in Prism (version 5.0b for Mac) (GraphPad Software; La Jolla, Calif.).

TOV-21G tumor xenografts = test: Xenograft study, tumor growth; type: in vivo, mouse; settings: SCID mice, 450 mg/kg BID, 28 days
Description: as §2, §3, §4

[3] = test system: mono-, di-, and tri-methylated H3K27; test: Western blot of H3K27 methylation in cells
SWI/SNF wild-type models = test: Clonogenic assay (colony formation); type: cell-based, human; settings: panel (n=8) of cell lines wildtype for SWI/SNF complex genes
Description: as §1

[4] = test system: SMARCB1-mutant malignant rhabdoid tumor lines; test: Clonogenic assay (colony formation); type: cell-based, human; settings: two SMARCB1-mutant malignant rhabdoid tumor lines
Description: as §1

TOV-112D cells = test: Caspase 3/7 apoptosis assay; type: cell-based, human
Description: (§5) Apoptosis was monitored through (a) live cell imaging analysis using the Incucyte Caspase-3/7 Apoptosis Assay (Essen Biosciences, Cat. No. 4440) or through a static time point assessment using the Caspase-Glo 3/7 Assay (Promega, G8090). For Incucyte-based assays (FIG. 4B), 300-600 cells (based on doubling time) were plated in 96-well plates, and at 24 hours, media was replaced with EPZ-6438-containing media at the indicated concentrations and Caspase 3/7 reagent (Essen Bioscience). Fresh media containing EPZ-6438 and Caspase 3/7 reagent was replaced every 3 to 4 days. Phase contrast and fluorescent images were collected every 3 hours, and the number of fluorescent objects were counted and analyzed according to the Incucyte protocol. Data are presented as Caspase 3/7 fluorescent counts normalized to DMSO control at the indicated time points. For determination of apoptosis by Caspase-Glo (FIG. 18C, 19G), TO[…] cells were plated at 500 cells per well in a 96 well plate and treated with the indicated concentrations of EPZ-6438 for 6 days. Caspase 3/7 activity was measured according to the manufacturer's instructions, and results were normalized to signal in DMSO control wells, when indicated. To evaluate senescence induction, cells were stained for β-galactosidase activity using the Senescence Cells Histochemical Staining Kit (Sigma), according to the manufacturers instructions.

[5] = test system: SMARCA4-mutant cell lines; test: Caspase 3/7 apoptosis assay; type: cell-based, human; settings: several other models, prolonged exposure
Description: as §5

[6] = test system: H3K27 methylation in NCI-H522 tumor xenograft tissue; test: Pharmacodynamic Western blot of xenograft tumor tissue; type: in vivo, mouse; settings: strongest at 450 mg/kg BID; day 7, three hours after dosing
Description: (§6) Plasma and tumor samples for pharmacodynamic analysis were collected from tumor-bearing mice on day 7, 3 hours following the last dose. Tumor tissue was lysed in RIPA buffer containing 1M NaCl and homogenized for 3 minutes at speed 10 (NEXTADVANCE, BULLET BLENDER® 24) prior to Western blotting.

[7] = test system: H3K27me3 in TOV-21G tumor xenograft tissue; test: as above; type: in vivo, mouse; settings: day 7, three hours following twice-daily oral administration
Description: as §6

NCI-H522 cells = test: Edu incorporation (DNA synthesis); type: cell-based, human; settings: 8 weeks of treatment, relative to resistant NCI-H1568
[8] = biological target: SMARCA4-mutant EPZ-6438-sensitive models; test: Senescence β-galactosidase staining; type: cell-based, human
Description: as §5

[9] = test system: SMARCA4-mutant cell lines; test: Cell morphology after prolonged treatment; type: cell-based, human; settings: EPZ-6438-sensitive models, 21 days of treatment, 5 μM
[10] = test system: H3K27me3 at the SMARCA2 promoter; test: H3K27me3 ChIP-PCR; type: cell-based, human; settings: TOV-112D cells
Description: For each sample, 10×10^6 cells were harvested and washed with 1×PBS. Cells were fixed and sheared following the instructions provided with the truChlP Chromatin Shearing Reagent Kit (Covaris). Cells were fixed for 5 minutes with 1% formaldehyde and then quenched with quenching buffer for 5 minutes. Cells were then washed with cold 2×PBS. Nuclei were isolated and sheared using the Covaris AFA Focused-ultrasonicator for 20 minutes. The IP was conducted with 500 μg sheared chromatin and 10 μg anti-H3K27me3 (Active Motif cat #39155) or anti-Rabbit IgG. The Magna ChIP kit (Millipore) was used for IP. For each IP, a 50 μl mixture of Dynabeads protein A and G (50/50 mix) was incubated with primary antibody for 3 hours. The beads were added to 500 μg of sheared chromatin. The beads and antibodies were incubated overnight at 4° C. The beads were then washed with the following wash buffers: low salt, high salt, LiCI wash buffer, and TE Buffer. DNA was extracted from the beads in ChIP elution buffer with protease K at 64° C. with shaking overnight. DNA was then purified using the QIAquick PCR Purification Kit (Qiagen). DNA was eluted with 30 μl of water. 1.0 μl of eluted DNA was used for each SYBR green PCR reaction. SMARCA2 was amplified using the following primers: forward, […] (SEQ ID NO: 27); reverse, […] (SEQ ID NO: 28). […]

[11] = OVTOKO and OVISE ARID1A-mutant cell lines
[12] = SMARCA4-mutant cells resistant to EPZ-6438 (H1299, A549)
[13] = SMARCA4-mutant cells sensitive to EPZ-6438 (SNU-484, TOV112D), dose-dependent
[14] = COV434, SNU-484 and G401 cells expressing shBRM

Nc1ncn([C@H]2C[C@H](O)[C@@H](CO)O2)c(=O)n1 [5-aza-2′-deoxycytidine]
SMARCA2 mRNA levels (SMARCA2; SMARCA4-mutant cells with repressed SMARCA2): did not impact

CCS(=O)(=O)N1CCC([C@@H](C)n2c(C)c(C(=O)NCc3c(OC)cc(C)[nH]c3=O)c3ccccc32)CC1 [CPI-169]
acini formation (ARID1A-mutant cell lines; A2780 cells (positive control)): inhibition of both clonogenic growth and acini formation | acini formation (ARID1A-mutant cell lines; [11]): lack of activity | differential sensitivity of colony formation ([1]; ARID1A-mutant versus ARID1A-WT ovarian cell lines): phenocopied | colony formation [2, 12]: no effect | colony formation [2, 13]: inhibited colony formation

CCN(c1cc(-c2ccc(CN3CCOCC3)cc2)cc(C(=O)NCc2c(C)cc(C)[nH]c2=O)c1C)C1CCOCC1 [EPZ-6438]
CTSB transcript and protein (cathepsin B (CTSB)): strongly upregulated | induction of SMARCA2 transcript and protein (SMARCA2; EPZ-6438-resistant SMARCA4-mutant cell lines, 5 μM): but not EPZ-6438-resistant | induction of SMARCA2 (SMARCA2; EPZ-6438-sensitive ARID1A-mutant A2780 cells, 5 μM, 6 days): induction of SMARCA2 | induction of SMARCA2 transcript and protein (SMARCA2; EPZ-6438-sensitive SMARCA4-mutant cell lines, 5 μM): strong induction | SMARCA2 levels (SMARCA2; SMARCB1-mutant MRT line G401, 6 days, EPZ-6438 5 μM, 5-Aza 1 μM): induction in SMARCA2 levels | acini formation (ARID1A-mutant cell lines; A2780 cells (positive control)): inhibition of both clonogenic growth and acini formation | acini formation (ARID1A-mutant cell lines; [11]): lack of activity | tumor growth inhibition (TGI) (NCI-H522 xenografts; 450 mg/kg BID): 72% | inhibition of tumor growth (NCI-H522 xenografts; twice daily (BID), 30, 100, 450 mg/kg, 23 days): dose-dependent inhibition of tumor growth | tumor growth inhibition (TOV-21G tumor xenografts): tumor growth inhibition | inhibition of H3K27 methylation in cells expressing shBRM [3, 14]: no effect on the ability of EPZ-6438 to inhibit H3K27 methylation | inhibition of mono-, di-, and tri-methylated H3K27 ([3]; EPZ-6438-sensitive and EPZ-6438-resistant cell lines, dose-dependent, 6-day treatment): inhibited mono-, di-, and tri-methylated H3K27 to a similar extent | inhibition in colony formation ([1]; panel of ARID1A-mutant cancer cell lines): inhibition in colony formation was observed in a subset | activity on colony formation (SWI/SNF wild-type models): No activity; also recorded: No effect | inhibition in colony formation [4]: inhibition in colony formation | dose-dependent induction of apoptosis in cells expressing shBRM (TOV-112D cells; TOV-112D cells expressing shBRM, 6 days): prevented | activation of caspase 3/7 in cells expressing shCTSB (TOV-112D cells; TOV-112D cells expressing shRNAs targeting CTSB): significantly suppressed | apoptotic response (caspase 3/7) (TOV-112D cells; TOV-112D cells, seven days of treatment): strong apoptotic response | apoptosis (caspase 3/7) [5]: subpopulations of apoptotic cells | H3K27me3 and H3K27me2 in tumor tissue [6]: reduction of H3K27me3 and H3K27me2 | H3K27me3 in tumor tissue [7]: target inhibition | DNA synthesis / proliferative state by Edu incorporation (NCI-H522 cells): non-proliferative state; also recorded: inhibition of DNA synthesis | kinetics of senescence induction (homogenous β-galactosidase expression) ([8]; COV434 model): homogenous expression of β-galactosidase by seven days | kinetics of senescence induction (homogenous β-galactosidase expression) ([8]; NCI-HS22 cells): not observed until a few weeks | senescence-associated β-galactosidase expression ([8]; some SMARCA4-mutant EPZ-6438-sensitive models, most notable in COV434 and NCI-HS22): Increases in senescence-associated β-galactosidase expression | morphologic changes (cell flattening and enlargement) [9]: pronounced morphologic changes | association of H3K27me3 with the SMARCA2 gene promoter [10]: significant decrease | colony formation in cells expressing SMARCA2 shRNA (shBRM) [2, 14]: did not affect the ability of EPZ-6438 to inhibit colony formation | dose-dependent inhibition of colony formation in cells expressing shBRM ([2]; TOV-112D cells expressing shBRM): prevented the dose-dependent inhibition of colony formation | inhibition in colony formation ([2]; panel of 11 SMARCA4-mutant cancer cell lines, increasing doses): dose-dependent inhibition in colony formation was observed in a subset

CC[C@H](C)n1cc(C)c2c(C(=O)NCc3c(C)cc(C)[nH]c3=O)cc(-c3ccc(N4CCNCC4)nc3)cc21 [GSK-126]
colony formation [2, 12]: no effect | colony formation [2, 13]: inhibited colony formation
